{"source": "patent US20250059139A1", "about": "“COMPOUNDS FOR TREATMENT OF CANCER” (THE JOHNS HOPKINS UNIVERSITY, priority 2021, published 2025)", "key": {"[1]": {"tested_on": "human prostate cancer cell lines", "experiment": "In vitro growth of human prostate cancer cell lines", "type": "cell-based", "details": "CWR22Rv1, 3 of the 4 lines (FIGS. 48A-48C: BCap-1, LgCap-1, CWR-22Rv1)", "source_text": "(§1) Prostate Cancer Models. The source, history, and characteristics of the human prostate cancer cell lines and PDXs used, as well as cell culture conditions for their in vitro maintenance and the in vivo protocol for xenograft growth in triple immune-deficient NSG (i.e. NOD.Cg-PrkdcScidIl2rgtmlWji/Szj), adult (>8 week old) male mice obtained from the Sidney Kimmel Comprehensive Cancer Center (SKCCC) Animal Core Facility are described previously (Isaacs 2013; Brennen et al. JCI Insight. 2021, 6(8):e146827; Zhu et al. Oncogene 2020, 39(45): 6935-6949). […] In vitro growth curves were determined as described (Isaacs 2013). In vivo growth response to oral daily TasQ (10 mg/kg/d) of TRAMP-C2 mouse prostate cancers was evaluated in C57BL/6J syngeneic wild type vs. NOX-2 vs. iNOS null male mice obtained from Jackson Laboratory (Bar Harbor, ME). Growth response to oral daily TasQ (10 mg/kg/d) of TRAMP-C2 and B6CaP mouse prostate cancers was also evaluated in S100A9 null C57BL′6J male mice obtained from Dmitry Gabrilovich (Wistar Institute). […] In vitro growth curves were determined as described (Isaacs 2013). Growth response to daily oral TasQ vs. ESATA-20 (both at 10 mg/kg/d) of Myc-CaP-CR mouse prostate cancer was evaluated in syngeneic FVB/NJ castrate male mice from Jackson Laboratory. […]"}, "[2]": {"target": "T1, fl-R681A/R798A double mutant HDAC4 / fl-NCoR1 (Homo sapiens, UniProt P56524, R681A/R798A)", "T1 construct": "Full-length (fl) [A.A. 1-1082] recombinant human histone deacetylase 4 (rhHDAC4) protein; FLAG (N); GST (given as 'with or without'); host or cells: HEK293-T (HDAC4)", "T1 sequence (P56524 whole entry R681A/R798A)": "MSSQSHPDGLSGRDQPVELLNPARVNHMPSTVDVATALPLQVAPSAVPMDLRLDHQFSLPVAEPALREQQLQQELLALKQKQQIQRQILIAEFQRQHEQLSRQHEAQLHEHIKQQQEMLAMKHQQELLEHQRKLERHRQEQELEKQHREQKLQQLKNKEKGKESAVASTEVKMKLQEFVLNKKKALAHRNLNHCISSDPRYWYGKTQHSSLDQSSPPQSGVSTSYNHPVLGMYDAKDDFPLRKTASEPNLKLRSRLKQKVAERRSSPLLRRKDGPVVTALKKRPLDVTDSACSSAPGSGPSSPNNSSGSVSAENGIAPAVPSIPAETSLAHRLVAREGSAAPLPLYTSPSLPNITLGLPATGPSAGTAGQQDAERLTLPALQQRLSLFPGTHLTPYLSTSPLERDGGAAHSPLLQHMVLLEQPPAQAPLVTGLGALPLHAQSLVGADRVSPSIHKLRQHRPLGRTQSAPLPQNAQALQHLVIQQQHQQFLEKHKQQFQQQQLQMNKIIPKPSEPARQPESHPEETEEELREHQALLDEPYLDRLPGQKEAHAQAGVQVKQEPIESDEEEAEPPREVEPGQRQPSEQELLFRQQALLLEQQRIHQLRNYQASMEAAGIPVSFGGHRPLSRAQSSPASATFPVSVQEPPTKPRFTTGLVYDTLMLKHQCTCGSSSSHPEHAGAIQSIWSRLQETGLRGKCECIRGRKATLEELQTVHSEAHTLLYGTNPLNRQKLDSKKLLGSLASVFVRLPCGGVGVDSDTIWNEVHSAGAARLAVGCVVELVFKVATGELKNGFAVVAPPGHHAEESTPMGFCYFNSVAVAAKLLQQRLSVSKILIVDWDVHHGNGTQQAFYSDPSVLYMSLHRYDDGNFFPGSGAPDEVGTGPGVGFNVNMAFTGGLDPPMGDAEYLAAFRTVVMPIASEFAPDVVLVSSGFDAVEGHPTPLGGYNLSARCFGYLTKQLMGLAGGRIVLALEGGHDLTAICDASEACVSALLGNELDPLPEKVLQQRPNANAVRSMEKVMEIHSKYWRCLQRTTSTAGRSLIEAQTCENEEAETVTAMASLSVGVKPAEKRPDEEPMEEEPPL", "experiment": "SPR inhibition of fl-R681A/R798A double mutant HDAC4 binding to fl-NCoR1", "details": "plateau at 2 μM TasQ", "experimental": "Surface Plasmon Resonance (SPR) Binding Analysis. SPR analysis was performed on the Biacore 3000™ system using CM5 sensor chips, certified buffers (HBS-P—10 mM HEPES, 0.15 M NaCl, pH 7.4, containing 0.005% v/v Surfactant P; HBS-EP-HBS-P with 3 mM EDTA) and reagents for immobilization and surface regeneration from Biacore, GE Healthcare, Uppsala Sweden. Evaluation of sensorgrams was performed using the BIA-evaluation Software version 4.1 and GraphPad Prism 4. Buffer of protein reagents were changed to HBS-P on Zeba spin desalting columns (Thermo Scientific) prior to being used in SPR analysis (Isaacs 2013).\nC. Inhibition of HDAC4-NCoR1 interaction by TasQ. The interaction between HDAC4 and NCoR1 was studied either by injecting NCoR over immobilized HDAC4 or with an alternative orientation where HDAC4 was passed over a surface with covalently coupled NCoR1. Whether TasQ can inhibit the formation of the functional HDAC4-NCoR1 complex was tested by pre-incubation with NCoR1 or HDAC4.\nThese additional analyses again documented high-affinity binding of the wild-type fl-HDAC4 protein to fl-NCoR1 with such binding being competed by pre-incubation with TasQ in solution (FIG. 21)."}, "[3]": {"tested_on": "CWR-22Rv1 dominant-positive mutant HIF-1α cells", "experiment": "In vivo growth of CWR-22Rv1 xenografts expressing dominant-positive mutant HIF-1α", "set-up": "species or system human", "details": "daily oral 10 mg/kg/d", "source_text": "as §1"}}}
{"smiles": "COc1cccc2c1c(O)c(C(=O)N(c1ccc(C(F)(F)F)cc1)C1CCCCC1)c(=O)n2C", "note": "[ESATA-20]", "values": [{"measurement": "IC50", "setting": "[1]", "result": "< 10", "unit": "µM"}]}
{"smiles": "COc1cccc2c1c(O)c(C(=O)N(C)c1ccc(C(F)(F)F)cc1)c(=O)n2C", "note": "[TasQ, Tasquinimod]", "values": [{"measurement": "inhibition at 2 µM", "setting": "[2]", "result": "< 35", "unit": "%"}, {"measurement": "growth inhibition of dominant-positive mutant HIF-1α tumors", "setting": "[3]", "result": "< 25", "unit": "%"}]}
